The source of these data is article PMC10150623 (Journal of Enzyme Inhibition and Medicinal Chemistry, 2023).

The subject of one data set is BoNT/A. The following applies: cited from earlier work.
The subject of the next data set is leg muscle paralysis. Further details: species or system KM mice. The following applies: mouse, in vivo.
The conditions of data set [1]: in vivo; cited from earlier work.
A further data set concerns the target BoNT/A LC (1–448 aa) (Clostridium botulinum, UniProt P0DPI0). Type of data set: biochemical.
Data set [2] deals with Clostridium botulinum neurotoxin type A light chain (1-448 aa) (Clostridium botulinum) (UniProt P0DPI0). Description: enzyme inhibition kinetics (HPLC of substrate and products).

Peptide text beside a SMILES is read from it.

BoNT/A LC (1–448 aa), sequence (P0DPI0 1-448 limits assumed): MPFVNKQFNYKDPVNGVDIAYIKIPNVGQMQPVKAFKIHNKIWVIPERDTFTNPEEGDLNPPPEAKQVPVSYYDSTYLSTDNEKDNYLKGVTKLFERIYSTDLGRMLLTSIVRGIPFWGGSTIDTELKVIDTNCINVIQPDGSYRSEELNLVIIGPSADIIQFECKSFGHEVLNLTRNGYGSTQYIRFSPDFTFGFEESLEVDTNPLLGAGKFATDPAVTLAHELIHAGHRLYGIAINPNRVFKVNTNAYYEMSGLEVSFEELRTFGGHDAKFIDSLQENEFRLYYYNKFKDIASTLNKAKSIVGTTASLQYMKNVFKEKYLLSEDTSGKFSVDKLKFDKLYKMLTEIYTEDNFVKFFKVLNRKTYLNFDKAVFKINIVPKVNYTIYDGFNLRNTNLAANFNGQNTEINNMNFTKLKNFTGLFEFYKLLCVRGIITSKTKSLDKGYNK
Clostridium botulinum neurotoxin type A light chain (1-448 aa) (Clostridium botulinum), sequence (P0DPI0 1-448): as the sequence (P0DPI0 1-448 limits assumed) above

Consider `N=C(N)NCCC[C@H](NC(=O)[C@@H](N)CCCNC(=N)N)C(=O)NCC(=O)N[C@@H](Cc1c[nH]c2ccccc12)C(=O)O` [RRGW] (H-RRGW-OH), for which the “cytotoxicity (cell viability)” value with SH-SY5Y cells and in the data set on Neuro-2A (N2A) cells was “no cytotoxicity” each time.
CRGC: in the data set with BoNT/A, the “cell-based activity, in words” value is “higher activity than RRGC in cell-based experiments”.
“Clostridium botulinum neurotoxin type A [BoNT/A]”: the “DAS (digit abduction score)” value in the data set on leg muscle paralysis is given as 3–4. Besides, in data set [1], the “nonserious cases following cosmetic use” value is reported as 995 cases, the “nonserious cases following therapeutic use” value is given as 189 cases, the “serious cases following cosmetic use” value is 36 cases and the “serious cases following therapeutic use” value is given as 217 cases.
Regarding RHGW, the “inhibitory effect on BoNT/A LC proteolytic activity (SNAP-25 cleavage), in words” value against BoNT/A LC (1–448 aa) was “RRGW showed a better inhibitory effect on BoNT/A proteolytic activity than RRGC, RRGL and RHGW”.
On to RRGL, for which the “inhibitory effect on BoNT/A LC proteolytic activity (SNAP-25 cleavage), in words” value at BoNT/A LC (1–448 aa) is “RRGW showed a better inhibitory effect on BoNT/A proteolytic activity than RRGC, RRGL”.
In data set [2], RRGW tetrapeptide showed an inhibition constant Ki of 790 nM.

What is called Ki is the equilibrium dissociation constant of an inhibitor or competing ligand from its target. A higher Ki goes with a looser hold on the target.
